Laboratory results: ChEMBL document CHEMBL1146819, “Synthesis and SAR of 2-arylbenzoxazoles, benzothiazoles and benzimidazoles as inhibitors of lysophosphatidic acid acyltransferase-beta” (Bioorg Med Chem Lett, 2004)
Active and inactive are the calls of the source.

Assays:
[1] = target: T1, 1-acyl-sn-glycerol-3-phosphate acyltransferase beta (Homo sapiens, UniProt O15120); assay: Inhibitory concentration against human lysophosphatidic acid acyltransferase-beta (LPAAT-beta) expressed in Sf9 insect cell membranes
T1 sequence (O15120 whole entry): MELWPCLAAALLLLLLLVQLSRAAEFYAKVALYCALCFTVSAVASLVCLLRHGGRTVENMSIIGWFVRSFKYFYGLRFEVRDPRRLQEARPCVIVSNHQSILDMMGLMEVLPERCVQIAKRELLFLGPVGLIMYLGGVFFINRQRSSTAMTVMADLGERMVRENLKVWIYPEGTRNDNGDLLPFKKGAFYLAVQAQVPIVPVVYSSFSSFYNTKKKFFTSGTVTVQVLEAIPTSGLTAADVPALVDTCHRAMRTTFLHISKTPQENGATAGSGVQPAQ

[2] = target: T2, 1-acyl-sn-glycerol-3-phosphate acyltransferase alpha (Homo sapiens) (UniProt Q99943); assay: Inhibitory activity against human lysophosphatidic acid acyltransferase-alpha (LPAAT-alpha) expressed in Sf9 insect cell membranes at <20 uM; Not active
T2 sequence (whole entry): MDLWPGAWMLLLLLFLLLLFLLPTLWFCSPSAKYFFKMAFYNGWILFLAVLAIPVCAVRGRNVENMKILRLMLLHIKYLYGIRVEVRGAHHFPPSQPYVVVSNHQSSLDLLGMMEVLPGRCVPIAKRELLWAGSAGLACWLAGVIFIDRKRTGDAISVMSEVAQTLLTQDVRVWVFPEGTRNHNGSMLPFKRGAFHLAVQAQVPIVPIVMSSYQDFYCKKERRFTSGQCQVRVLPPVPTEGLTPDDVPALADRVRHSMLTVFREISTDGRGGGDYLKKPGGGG

MCF7 [3] = assay: In vitro inhibitory concentration of compound against proliferation of MCF-7 breast carcinoma cells; assay type: functional, cell-based; details: Homo sapiens
DU-145 = assay: In vitro inhibitory concentration of compound against proliferation of DU145 prostate carcinoma cells; assay type: functional, cell-based; details: Homo sapiens
MCF7 [4] = assay: In vitro inhibitory concentration of compound against proliferation of MCF-7 breast carcinoma cells; Range is 30-40 uM; assay type: functional, cell-based; details: Homo sapiens

COC(=O)Nc1ccc(Cl)c(-c2nc3cc(C)ccc3o2)c1
IC50 [1]: 1000 nM
Activity [2]: inactive

C=CCOC(=O)Nc1ccc(Cl)c(-c2nc3cc(C)ccc3o2)c1
IC50 [1]: 1400 nM
Activity [2]: inactive

CC#CCOC(=O)Nc1ccc(Cl)c(-c2nc3cc(Cl)ccc3o2)c1
IC50 [1]: 75 nM
Activity [2]: inactive

COC(=O)Nc1ccc(C)c(-c2nc3cc(Cl)ccc3o2)c1
IC50 [1]: 550 nM
Activity [2]: inactive

C#CCCC(=O)Nc1ccc(Cl)c(-c2nc3cc(C)ccc3o2)c1
IC50 [1]: 500 nM
Activity [2]: inactive

Cc1ccc2oc(-c3cc(NC=O)ccc3Cl)nc2c1
IC50 [1]: > 5000 nM
Activity [2]: inactive

CNCC(=O)Nc1ccc(Cl)c(-c2nc3cc(Cl)ccc3o2)c1
IC50 [1]: > 5000 nM
Activity [2]: inactive

C#CCOC(=O)Nc1ccc(Cl)c(-c2nc3ccccc3o2)c1
IC50 (MCF7 [3]): 20 µM
Activity [2]: inactive
IC50 (DU-145): 50 µM

C#CCOC(=O)Nc1ccc(C)c(-c2nc3cc(Cl)ccc3o2)c1
IC50 [1]: 100 nM
Activity [2]: inactive

CC#CC(=O)Nc1ccc(Cl)c(-c2nc3cc(C)ccc3o2)c1
IC50 [1]: > 20000 nM
Activity [2]: inactive

[N-]=[N+]=NCC(=O)Nc1ccc(Cl)c(-c2nc3cc(Cl)ccc3o2)c1
IC50 [1]: 170 nM
Activity [2]: inactive

COC(=O)Nc1ccc(Cl)c(-c2nc3ccccc3o2)c1
Activity [2]: inactive

COC(=O)Nc1ccc(Cl)c(-c2nc3cc(Cl)ccc3n2C)c1
IC50 [1]: 650 nM
Activity [2]: inactive

C#CCCC(=O)Nc1ccc(Cl)c(-c2nc3cc(Cl)ccc3o2)c1
IC50 [1]: 100 nM
Activity [2]: inactive

CC(=O)Nc1ccc(Cl)c(-c2nc3cc(C)ccc3o2)c1
IC50 [1]: 2500 nM
Activity [2]: inactive

N#CCC(=O)Nc1ccc(Cl)c(-c2nc3cc(Cl)ccc3o2)c1
IC50 [1]: 27 nM
Activity [2]: inactive

Cc1ccc2oc(-c3cc(NC(=O)c4ccccc4)ccc3Cl)nc2c1
IC50 [1]: 40000 nM
Activity [2]: inactive

N#CCC(=O)Nc1ccc(Cl)c(-c2nc3cc(C(F)(F)F)ccc3s2)c1
IC50 [1]: 50 nM
Activity [2]: inactive

C#CCOC(=O)Nc1ccc(Cl)c(-c2nc3cc(C(F)(F)F)ccc3[nH]2)c1
IC50 [1]: 5200 nM
Activity [2]: inactive

COC(=O)Nc1ccc(Cl)c(-c2nc3ccc(C)cc3o2)c1
IC50 [1]: 400 nM
Activity [2]: inactive

COC(=O)Nc1ccc(F)c(-c2nc3cc(C)ccc3o2)c1
IC50 [1]: > 64000 nM
Activity [2]: inactive

CNC(=O)Nc1ccc(Cl)c(-c2nc3cc(Cl)ccc3o2)c1
IC50 [1]: 950 nM
Activity [2]: inactive

N#CCC(=O)Nc1ccc(Cl)c(-c2nc3cc(Cl)ccc3s2)c1
Activity [2]: inactive

Cc1ccc2oc(-c3cc(NC(=O)OC(C)C)ccc3Cl)nc2c1
IC50 [1]: 16000 nM
Activity [2]: inactive

C#CCOC(=O)Nc1ccc(Cl)c(-c2nc3cc(Cl)ccc3n2C)c1
Activity [2]: inactive

COC(=O)Nc1ccc(Cl)c(-c2nc3ccc(C)cc3n2C)c1
IC50 [1]: > 20000 nM
Activity [2]: inactive

COC(=O)Nc1ccc(Cl)c(-c2nc3c(C)cccc3s2)c1
IC50 [1]: 9000 nM
Activity [2]: inactive

COC(=O)Nc1cccc(-c2nc3cc(C)ccc3o2)c1
IC50 [1]: > 64000 nM
Activity [2]: inactive

C#CCNC(=O)Nc1ccc(Cl)c(-c2nc3cc(Cl)ccc3o2)c1
IC50 [1]: 100 nM
Activity [2]: inactive

C#CCOC(=O)Nc1ccc(Cl)c(-c2nc3cc(C)ccc3o2)c1
Activity [2]: inactive

CCC(=O)Nc1ccc(Cl)c(-c2nc3cc(C)ccc3o2)c1
IC50 [1]: 1500 nM
IC50 (MCF7 [3]): 40 µM
Activity [2]: inactive
IC50 (DU-145): 40 µM

C#CCOC(=O)Nc1ccc(Cl)c(-c2nc3cc(O)ccc3o2)c1
IC50 [1]: 2000 nM
Activity [2]: inactive

C#CCOC(=O)Nc1ccc(Cl)c(-c2nc3cc(Cl)ccc3s2)c1
IC50 (MCF7 [3]): > 50 µM
Activity [2]: inactive
IC50 (DU-145): > 50 µM

COC(=O)Nc1ccc(Cl)c(-c2nc3c(C)cccc3o2)c1
IC50 [1]: 500 nM
Activity [2]: inactive

CC#CC(=O)Nc1ccc(Cl)c(-c2nc3cc(Cl)ccc3o2)c1
IC50 [1]: > 20000 nM
Activity [2]: inactive

C#CCOC(=O)Nc1ccc(Cl)c(-c2nc3cc(C(F)(F)F)ccc3n2C)c1
IC50 [1]: 120 nM
Activity [2]: inactive

COC(=O)Nc1ccc(Cl)c(-c2nc3cc(C)ccc3n2C)c1
IC50 [1]: 11000 nM
Activity [2]: inactive

Cc1ccc2oc(-c3cc(NC(=O)CN=[N+]=[N-])ccc3Cl)nc2c1
IC50 [1]: 600 nM
Activity [2]: inactive

COC(=O)Nc1ccc(Cl)c(-c2nc3cc(-c4ccccc4)ccc3o2)c1
IC50 [1]: 64000 nM
Activity [2]: inactive

C#CCOC(=O)Nc1ccc(C)c(-c2nc3cc(Cl)ccc3s2)c1
IC50 [1]: 15 nM
Activity [2]: inactive

COC(=O)Nc1ccc(Cl)c(-c2nc3cc(Cl)ccc3s2)c1
Activity [2]: inactive

CN(C)CC(=O)Nc1ccc(Cl)c(-c2nc3cc(Cl)ccc3o2)c1
IC50 [1]: > 5000 nM
Activity [2]: inactive

Cc1cc(-c2nc3ccccc3s2)ccc1N
IC50 [1]: > 40000 nM

COC(=O)Nc1ccc(OC)c(-c2nc3cc(C)ccc3o2)c1
IC50 [1]: 64000 nM
Activity [2]: inactive

COC(=O)Nc1ccc(Cl)c(-c2nc3cc(C(F)(F)F)ccc3s2)c1
Activity [2]: inactive

C#CCOC(=O)Nc1ccc(Cl)c(-c2nc3cc(C(F)(F)F)ccc3o2)c1
Activity [2]: inactive

Cc1ccc2oc(-c3cc(NC(=O)CC#N)ccc3Cl)nc2c1
IC50 [1]: 100 nM
Activity [2]: inactive

CCCC(=O)Nc1ccc(Cl)c(-c2nc3cc(C)ccc3o2)c1
IC50 [1]: 2500 nM
Activity [2]: inactive

COC(=O)Nc1ccc(Cl)c(-c2nc3cc(C(=O)O)ccc3o2)c1
IC50 [1]: > 20000 nM
Activity [2]: inactive

COC(=O)Nc1ccc(Cl)c(-c2nc3ccc(C)cc3s2)c1
IC50 [1]: > 64000 nM
Activity [2]: inactive

Cc1ccc2oc(-c3cc(NCCCC#N)ccc3Cl)nc2c1
IC50 [1]: > 5000 nM

COC(=O)Nc1ccc(Cl)c(-c2nc3cc(C(F)(F)F)ccc3o2)c1
IC50 [1]: 800 nM
Activity [2]: inactive

CCCOC(=O)Nc1ccc(Cl)c(-c2nc3cc(C)ccc3o2)c1
IC50 [1]: 12000 nM
Activity [2]: inactive

Cn1c(-c2cc(NC(=O)CC#N)ccc2Cl)nc2cc(Cl)ccc21
IC50 [1]: 300 nM
Activity [2]: inactive

C#CCCOC(=O)Nc1ccc(Cl)c(-c2nc3cc(Cl)ccc3o2)c1
IC50 [1]: 75 nM
Activity [2]: inactive

C#CCOC(=O)Nc1ccc(Cl)c(-c2nc3cc(C(F)(F)F)ccc3s2)c1
Activity [2]: inactive
IC50 (DU-145): 20 µM
IC50 (MCF7 [4]): 40 µM

Cc1ccc(NC(=O)CC#N)cc1-c1nc2ccccc2s1
IC50 [1]: 70 nM
Activity [2]: inactive

C#CCOC(=O)Nc1ccc(Cl)c(-c2nc3cc(Cl)ccc3o2)c1
IC50 (MCF7 [3]): 15 µM
Activity [2]: inactive
IC50 (DU-145): 50 µM

COC(=O)Nc1ccc(Cl)c(-c2nc3cc(O)ccc3o2)c1
IC50 [1]: > 20000 nM
Activity [2]: inactive

C#CCOC(=O)Nc1ccc(Cl)c(-c2nc3c(C)cccc3o2)c1
Activity [2]: inactive

COC(=O)Nc1ccc(Cl)c(-c2nc3cc(Cl)ccc3o2)c1
Activity [2]: inactive

Cc1ccc2oc(-c3cc(NC(=O)CO)ccc3Cl)nc2c1
IC50 [1]: 31000 nM
Activity [2]: inactive

CCOC(=O)Nc1ccc(Cl)c(-c2nc3cc(C)ccc3o2)c1
IC50 [1]: 1500 nM
Activity [2]: inactive

COC(=O)Nc1ccc(C)c(-c2nc3cc(C)ccc3o2)c1
Activity [2]: inactive
